pIC50: −log10 of the molar value. Where two headings read alike, the source gives them in different places. Residues, ends and D or L forms follow the SMILES beside them.
Experiments:
[1] = target: T1, Rat GalR1 [cloned] (Rattus norvegicus, UniProt Q62805); experiment: [125I]hGalanin competition binding, membranes of COS-7 cells transiently expressing rat GalR1
T1 construct: expressed in transfected cells; host or cells: COS-7 (monkey kidney), transient; membranes
T1 sequence (Q62805 1-346): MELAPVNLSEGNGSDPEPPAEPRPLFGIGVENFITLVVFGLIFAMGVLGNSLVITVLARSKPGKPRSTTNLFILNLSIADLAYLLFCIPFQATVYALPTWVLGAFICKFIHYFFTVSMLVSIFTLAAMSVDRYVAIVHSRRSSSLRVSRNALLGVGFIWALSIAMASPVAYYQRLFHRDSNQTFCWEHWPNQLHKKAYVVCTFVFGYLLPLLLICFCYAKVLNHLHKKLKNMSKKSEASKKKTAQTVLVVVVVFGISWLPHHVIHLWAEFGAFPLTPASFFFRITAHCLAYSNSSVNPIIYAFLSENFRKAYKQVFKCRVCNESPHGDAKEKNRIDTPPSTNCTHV
Description: (§1) 15 μg of DNA and 90 μl of lipofectamine were added to each flask. Media was replaced 24 hours post transfection, and membranes were harvested 24 hours later.
(§2) The media was removed from each flask of transfected cells, and the cells were washed twice with 20 ml ice-cold phosphate buffered saline. The cells were scraped from the flask in 5 ml of Tris buffer (20 mM Tris-HCl, 5 mM EDTA, pH 7.7), and then transferred to a centrifuge tube. Each flask was rinsed with an additional 5 ml of Tris buffer, and combined in the centrifuge tube. The cells were homogenized in a Polytron PT-3000 (Brinkman Instruments, Mill Valley, N.Y.) for 2×10 seconds ([…], 7000-8000 rpm) and centrifuged at 20,000×g for 30 minutes at 4° C. The pellet was resuspended in fresh Tris buffer, and centrifuged again at 20,000×g for 30 minutes at 4° C. Protein concentration was measured using the Bio-Rad kit according to the standard manufacturer's protocol (Bio-Rad Laboratories (Hercules, Calif.) 500-0001) using bovine IgG as the standard.
(§3) The binding assays were performed on 96-well plates (GF/C Millipore Corp., Bedford, MA PN MAFC NOB 50) pretreated with 0.3% polyethylenimine (PEI) for at least 3 hours prior to use. The PEI was aspirated from the plates on a vacuum manifold, and the wells were rinsed with 200 μl of ice-cold binding buffer (25 mM Tris, 10 mM MgCl2, 0.1% BSA, pH 7.4) immediately before samples were added to the wells. […] Samples were incubated for 90 minutes at room temperature with constant shaking. To terminate the reaction, samples were aspirated on a vacuum manifold and rinsed with 3×200 μl ice-cold buffer. Samples were then counted on a gamma counter to quantitate the amount of radioactivity. […] (West Haven, Conn.). All other peptides were purchased from either Peninsula (Belmont, Calif.) or Bachem (Torrance, Calif.).
(§4) Peptide species are indicated with the following prefixes: r≡rat, h≡human.

[2] = target: T2, Rat GalR2 [clone Y107] (Rattus norvegicus, UniProt O08726); experiment: [125I]hGalanin competition binding, membranes of COS-7 cells transiently expressing rat GalR2 clone Y107
T2 construct: expressed in transfected cells; host or cells: COS-7 (monkey kidney), transient, pcDNA3 clone from a rat hypothalamus cDNA library; membranes
T2 sequence (O08726 1-372): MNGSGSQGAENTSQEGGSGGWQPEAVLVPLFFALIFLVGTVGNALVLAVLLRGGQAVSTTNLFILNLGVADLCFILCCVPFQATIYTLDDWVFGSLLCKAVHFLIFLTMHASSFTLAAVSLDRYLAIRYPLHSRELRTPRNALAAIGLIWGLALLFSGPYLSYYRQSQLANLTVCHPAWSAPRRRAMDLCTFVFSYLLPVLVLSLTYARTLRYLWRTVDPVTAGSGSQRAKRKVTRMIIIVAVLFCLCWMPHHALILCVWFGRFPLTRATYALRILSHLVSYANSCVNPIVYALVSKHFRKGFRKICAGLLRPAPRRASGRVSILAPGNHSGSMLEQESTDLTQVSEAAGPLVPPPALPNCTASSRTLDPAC
Description: as §1, §2, §3, §4

[3] = 50 pM [125I]hGalanin, COS-7 membranes, 90 minutes at room temperature, average ± SEM, or average (individual values), read-out: Rat GalR1 [cloned] IC50 value
[4] = 50 pM [125I]hGalanin, COS-7 membranes, 90 minutes at room temperature, average (individual values) or single experiment, read-out: Rat GalR2 [clone Y107] IC50 value

| SMILES | pIC50 [1, 3] | pIC50 [2, 4] | further results |
| --- | --- | --- | --- |
| CC[C@H](C)[C@H](NC(=O)[C@H](C)NC(=O)[C@H](Cc1c[nH]cn1)NC(=O)[C@@H]1CCCN1C(=O)CNC(=O)[C@H](CC(C)C)NC(=O)[C@H](CC(C)C)NC(=O)[C@H](Cc1ccc(O)cc1)NC(=O)CNC(=O)[C@H](C)NC(=O)[C@H](CO)NC(=O)[C@H](CC(N)=O)NC(=O)[C@H](CC(C)C)NC(=O)[C@@H](N)[C@@H](C)O)C(=O)N[C@@H](CC(=O)O)C(=O)N[C@@H](CC(N)=O)C(=O)N[C@@H](Cc1c[nH]cn1)C(=O)N[C@@H](CCCNC(=N)N)C(=O)N[C@@H](CO)C(=O)N[C@@H](Cc1ccccc1)C(=O)N[C@@H](CO)C(=O)N[C@@H](CC(=O)O)C(=O)N[C@@H](CCCCN)C(=O)N[C@@H](Cc1c[nH]cn1)C(=O)NCC(=O)N[C@@H](CC(C)C)C(=O)N[C@H](C(N)=O)[C@@H](C)O [r(3-29)galanin] | – | – | pIC50 [1]: < 6.00; pIC50 [2]: < 6.00 |
| CC[C@H](C)[C@H](NC(=O)[C@H](C)NC(=O)[C@H](Cc1c[nH]cn1)NC(=O)[C@@H]1CCCN1C(=O)CNC(=O)[C@H](CC(C)C)NC(=O)[C@@H](N)CC(C)C)C(=O)N[C@@H](CC(=O)O)C(=O)N[C@@H](CC(N)=O)C(=O)N[C@@H](Cc1c[nH]cn1)C(=O)N[C@@H](CCCNC(=N)N)C(=O)N[C@@H](CO)C(=O)N[C@@H](Cc1ccccc1)C(=O)N[C@@H](CO)C(=O)N[C@@H](CC(=O)O)C(=O)N[C@@H](CCCCN)C(=O)N[C@@H](Cc1c[nH]cn1)C(=O)NCC(=O)N[C@@H](CC(C)C)C(=O)N[C@H](C(N)=O)[C@@H](C)O [r(10-29)galanin] (H-LLGPHAIDNHRSFSDKHGLT-NH2; N-terminus and C-terminus assumed) | < 6.00 | < 6.00 | – |
| CC[C@H](C)[C@H](NC(=O)[C@H](C)NC(=O)[C@H](Cc1c[nH]cn1)NC(=O)[C@@H]1CCCN1C(=O)CNC(=O)[C@H](CC(C)C)NC(=O)[C@H](CC(C)C)NC(=O)[C@@H](N)Cc1ccc(O)cc1)C(=O)N[C@@H](CC(=O)O)C(=O)N[C@@H](CC(N)=O)C(=O)N[C@@H](Cc1c[nH]cn1)C(=O)N[C@@H](CCCNC(=N)N)C(=O)N[C@@H](CO)C(=O)N[C@@H](Cc1ccccc1)C(=O)N[C@@H](CO)C(=O)N[C@@H](CC(=O)O)C(=O)N[C@@H](CCCCN)C(=O)N[C@@H](Cc1c[nH]cn1)C(=O)NCC(=O)N[C@@H](CC(C)C)C(=O)N[C@H](C(N)=O)[C@@H](C)O [r(9-29)galanin] (H-YLLGPHAIDNHRSFSDKHGLT-NH2; N-terminus and C-terminus assumed) | < 6.00 | < 6.00 | – |
| CC[C@H](C)[C@H](NC(=O)[C@H](C)NC(=O)[C@H](Cc1c[nH]cn1)NC(=O)[C@@H]1CCCN1C(=O)CNC(=O)[C@H](CC(C)C)NC(=O)[C@H](CC(C)C)NC(=O)[C@H](Cc1ccc(O)cc1)NC(=O)CNC(=O)[C@H](C)NC(=O)[C@H](CO)NC(=O)[C@@H](N)CC(N)=O)C(=O)N[C@@H](CC(=O)O)C(=O)N[C@@H](CC(N)=O)C(=O)N[C@@H](Cc1c[nH]cn1)C(=O)N[C@@H](CCCNC(=N)N)C(=O)N[C@@H](CO)C(=O)N[C@@H](Cc1ccccc1)C(=O)N[C@@H](CO)C(=O)N[C@@H](CC(=O)O)C(=O)N[C@@H](CCCCN)C(=O)N[C@@H](Cc1c[nH]cn1)C(=O)NCC(=O)N[C@@H](CC(C)C)C(=O)N[C@H](C(N)=O)[C@@H](C)O [r(5-29)galanin] (H-NSAGYLLGPHAIDNHRSFSDKHGLT-NH2; N-terminus and C-terminus assumed) | < 6.00 | < 6.00 | – |
| CC(C)C[C@H](NC(=O)CNC(=O)[C@H](CC(N)=O)NC(=O)[C@H](CCCCN)NC(=O)[C@H](CC(=O)O)NC(=O)[C@H](CO)NC(=O)[C@H](Cc1ccccc1)NC(=O)[C@H](CO)NC(=O)[C@H](CCCNC(=N)N)NC(=O)[C@H](Cc1c[nH]cn1)NC(=O)[C@H](CC(N)=O)NC(=O)CNC(=O)[C@@H](NC(=O)[C@H](C)NC(=O)[C@H](Cc1c[nH]cn1)NC(=O)[C@@H]1CCCN1C(=O)CNC(=O)[C@H](CC(C)C)NC(=O)[C@H](CC(C)C)NC(=O)[C@H](Cc1ccc(O)cc1)NC(=O)CNC(=O)[C@H](C)NC(=O)[C@H](CO)NC(=O)[C@H](CC(N)=O)NC(=O)[C@H](CC(C)C)NC(=O)[C@@H](N)[C@@H](C)O)C(C)C)C(=O)N[C@H](C(=O)N[C@@H](CO)C(=O)O)[C@@H](C)O [h(3-30)galanin] (H-TLNSAGYLLGPHAVGNHRSFSDKNGLTS-OH; N-terminus and C-terminus assumed) | – | – | pIC50 ([1]; read-out: Rat GalR1 [cloned] IC50 value, 50 pM [125I]hGalanin, COS-7 membranes, 90 minutes at room temperature, average ± SEM, or average (individual values)): < 6.00; pIC50 ([2]; read-out: Rat GalR2 [clone Y107] IC50 value, 50 pM [125I]hGalanin, COS-7 membranes, 90 minutes at room temperature, average (individual values) or single experiment): < 6.00 |

Reference: patent US6410686B1, “Galanin receptor 2 protein” (Bayer Corporation, priority 1996, dated 2002)
